Assay results reported in ChEMBL document CHEMBL1201862, “PubChem BioAssay data set” (2004).
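96-well plates; 48 h exposure; 5 concentrations. Endpoints by linear interpolation between flanking doses. Not reached: highest tested concentration assigned. GI50 is the concentration that inhibits growth by half.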 Activity calls are given as the source filed them. Rule as the data show it: active = GI50 up to about 1.1 µM and inactive = higher.

Experiments:
Assay in all cases: inhibition of tumour cell growth, NCI panel, 48 h
HCT-15 = test system: HCT-15
Hs-578T = test system: Hs-578T
CCRF-CEM = test system: CCRF-CEM
UACC-62 = test system: UACC-62
RPMI-8226 = test system: RPMI-8226
SW-620 = test system: SW-620
CAKI-1 = test system: CAKI-1
IGROV-1 = test system: IGROV-1
OVCAR-3 = test system: OVCAR-3
DU-145 = test system: DU-145
NCI-H460 = test system: NCI-H460
T47D = test system: T47D
SN12C = test system: SN12C
A549 = test system: A549
KM12 = test system: KM12
786-0 = test system: 786-0
SNB-19 = test system: SNB-19
SK-MEL-28 = test system: SK-MEL-28
SF-539 = test system: SF-539
HCT-116 = test system: HCT-116

SMILES	GI50 (HCT-15) [µM]	GI50 (Hs-578T)	GI50 (CCRF-CEM)	GI50 (UACC-62)	GI50 (RPMI-8226)	GI50 (SW-620)	GI50 (CAKI-1)	GI50 (IGROV-1)	GI50 (OVCAR-3)	GI50 (DU-145)	GI50 (NCI-H460)	GI50 (T47D)	GI50 (SN12C)	GI50 (A549)	GI50 (KM12)	GI50 (786-0)	GI50 (SNB-19)	GI50 (SK-MEL-28)	GI50 (SF-539)	GI50 (HCT-116)
c1ccc(C(OCCN2CC3CCC(C2)N3)c2ccccc2)cc1	47.6	75.9 µM (inactive)	> 100 µM (inactive)	27.7 µM (inactive)	34.1 µM (inactive)	81.3 µM (inactive)	> 100 µM (inactive)	94.6 µM (inactive)	45 µM (inactive)	> 100 µM (inactive)	50.4 µM (inactive)	29.9 µM (inactive)	> 100 µM (inactive)	> 100 µM (inactive)	54 µM (inactive)	41 µM (inactive)	> 100 µM (inactive)	29.9 µM (inactive)	82.4 µM (inactive)	40.4 µM (inactive)
COC(=O)c1nc2n(n1)-c1ccccc1C(=O)N(Cc1ccccc1)C2	> 100	> 100 µM (inactive)	> 100 µM (inactive)	> 100 µM (inactive)	> 100 µM (inactive)	> 100 µM (inactive)	> 100 µM (inactive)	> 100 µM (inactive)	> 100 µM (inactive)	> 100 µM (inactive)	> 100 µM (inactive)	> 100 µM (inactive)	> 100 µM (inactive)	> 100 µM (inactive)	> 100 µM (inactive)	> 100 µM (inactive)	> 100 µM (inactive)	> 100 µM (inactive)	> 100 µM (inactive)	> 100 µM (inactive)
O=c1[nH]c2ccc([N+](=O)[O-])c(Cl)c2c2ccccc12	3.56	3.86 µM (inactive)	0.361 µM (active)	3.79 µM (inactive)	0.586 µM (active)	1.58 µM (inactive)	2.41 µM (inactive)	5.87 µM (inactive)	3.72 µM (inactive)	3.06 µM (inactive)	1.87 µM (inactive)	19.8 µM (inactive)	2.58 µM (inactive)	4.7 µM (inactive)	0.33 µM (active)	5.78 µM (inactive)	1.91 µM (inactive)	11 µM (inactive)	1.1 µM (active)	0.313 µM (active)
CCOC(=O)[C@@H](Cc1ccc(CCl)cc1)NC(C)=O	27.4	25.5 µM (inactive)	26.7 µM (inactive)	15.9 µM (inactive)	22.6 µM (inactive)	31 µM (inactive)	25.6 µM (inactive)	23.7 µM (inactive)	30.1 µM (inactive)	38.1 µM (inactive)	19 µM (inactive)	26.3 µM (inactive)	24 µM (inactive)	97.1 µM (inactive)	20.2 µM (inactive)	19.1 µM (inactive)	27.2 µM (inactive)	27.5 µM (inactive)	18.3 µM (inactive)	30.3 µM (inactive)
NC(=O)SCCC(N)C(=O)O (centres undefined)	> 100	> 100 µM (inactive)	> 100 µM (inactive)	> 100 µM (inactive)	> 100 µM (inactive)	> 100 µM (inactive)	> 100 µM (inactive)	> 100 µM (inactive)	> 100 µM (inactive)	> 100 µM (inactive)	> 100 µM (inactive)	> 100 µM (inactive)	> 100 µM (inactive)	> 100 µM (inactive)	> 100 µM (inactive)	> 100 µM (inactive)	> 100 µM (inactive)	> 100 µM (inactive)	> 100 µM (inactive)	> 100 µM (inactive)
C=C1C(O)C2(O)OCC34C(CC5C(C)=CC(=O)C(O)C5(C)C23)OC(=O)C(OC(=O)C/C=C(\C)CCCCC)C14 (centres undefined)	0.0316	< 0.001 µM (active)	0.0125 µM (active)	0.0147 µM (active)	0.014 µM (active)	0.0153 µM (active)	0.0427 µM (active)	0.0133 µM (active)		< 0.001 µM (active)	0.0125 µM (active)	< 0.001 µM (active)	0.0199 µM (active)	0.017 µM (active)	0.0129 µM (active)	0.00103 µM (active)	0.0146 µM (active)	0.0128 µM (active)	0.0153 µM (active)	0.0125 µM (active)
COc1cccc2c1C(=O)c1c(O)c3c(c(O)c1C2=O)CC(O)(C(=O)CO)CC3OC1CC(N2CCOCC2C#N)C(O)C(C)O1 (centres undefined)	< 0.0001	> 0.01 µM (active)	< 0.0001 µM (active)	< 0.0001 µM (active)	< 0.0001 µM (active)	< 0.0001 µM (active)	< 0.0001 µM (active)	> 0.01 µM (active)	< 0.0001 µM (active)	< 0.0001 µM (active)	< 0.0001 µM (active)	< 0.0001 µM (active)	< 0.0001 µM (active)	< 0.0001 µM (active)	< 0.0001 µM (active)	< 0.0001 µM (active)	< 0.0001 µM (active)	< 0.0001 µM (active)	< 0.0001 µM (active)	< 0.0001 µM (active)
